In patent US6403554B2, “Polyunsaturated fatty acid derivatives and their use” (Ardenia Investments Ltd., priority 1998, dated 2002):

How the values were obtained:
[1] = test system: hemagglutinating antibodies in serum; experiment: Humoral immune response: titers of hemagglutinating antibodies in serum; type: in vivo, C57B1/6 mice; settings: serum, female mice
Protocol: (§1) 0.15 ml of compound 10 was administered intravenously to 6 mice females of CS7B1/6 line (weight 18-22 g) in doses of 45.5, 91 and 136.5 μg of compound 10 per capita for each testing group according to the dose. Simultaneously, a suspension of 5·10^7 sheep erythrocytes was injected intraperitoneally (0.2 ml per capita). Mice in the control group were injected intravenously with equal volume of saline. The effects of compound 10 on humoral immune response were analyzed both by counting the quantity of AFC in the spleen according to Cunningham (per 10^6 spleen cells and per spleen) and estimating the titers of hemagglutining antibodies in serum of the animals (Cunningham A. J., Nature, 1965, Vol.207, No 5001. P.1106-1107), while the titers of hemagglutinating antibodies were evaluated according to litterature (Evans J. et al., Cell, 1974; Vol 3., p.153-158, Feizi T., Menger E., Transfusion, 1970, Vol. 10, p.33-35,).
(§2) 0.15 ml of compound 11 was administered intravenously to 6 female mice of the C57B1/6 line (weight 18-22 g) in doses of 45.5, 91 and 136.5 μg of compound 11 per capita for each testing group according to the dose. Simultaneously, a suspension of 5·10^7 sheep erytrocytes was injected intraperitoneally (0.2 ml per capita). Mice in the control group were injected intravenously with an equal volume of saline. The effects of compound 11 on humoral immune response was analysed both by counting the quantity of AFC in the spleen according to Cunningham (per 10^6 spleen cells and per spleen) and estimating the titers of hemagglutining antibodies in serum of the animals.
as §2, with “12” for “11”, “erythrocytes” for “erytrocytes”, “analyzed” for “analysed”
as §2, with “compound 8” for “compound 11”, “sheep erythrocytes” for “sheep erytrocytes”, “Mice of” for “Mice in”, “response were analyzed” for “response was analysed”
as §2, with “compound 3” for “compound 11”, “Mice of” for “Mice in”, “with” for “with an”, “response were” for “response was”
0.15 ml of compound 4 was administered intravenously to 6 female mice of the C57B1/6 line (weight 18-22 g) in a doses of 45.5, 91 and 136.5 μg of compound 4 per capita for each testing group according to the dose. Simultaneously, a suspension of 5·10^7 sheep erythrocytes was injected intraperitoneally (0.2 ml per capita). […]

[2] = test system: antibody-forming cells (AFC) in the spleen; experiment: Influence of compound on humoral immune response to sheep erythrocytes, C57B1/6 female mice (AFC in spleen, hemagglutinins); type: in vivo; settings: for Amount of antibody-forming cells per 10^6 spleen cells / Amount of antibody-forming cells per spleen / Effect on relative amount of AFC (per 10^6 spleen cells) / Effect on total AFC amount (per spleen) / Effect on hemagglutinin titers / Spleen index: i.v.; for Amount of antibody-forming cells per 10^6 spleen cells / Amount of antibody-forming cells per spleen / Effect on relative amount of AFC (per 10^6 spleen cells) / Effect on total AFC amount (per spleen): 5th day; for Amount of antibody-forming cells per 10^6 spleen cells / Amount of antibody-forming cells per spleen: M ± SEM; for Effect on relative amount of AFC (per 10^6 spleen cells) / Effect on total AFC amount (per spleen) / Effect on hemagglutinin titers: vs control; for Spleen index: with SRBC i.p.; for Immunogenic activity: 45.5 and 91 μg/mouse
Protocol: The increase was calculated as compared with the amount of cells in the animals immunised only with sheep erythrocytes.
as §1, §2
as §2, with “12” for “11”, “erythrocytes” for “erytrocytes”, “analyzed” for “analysed”
as §2, with “compound 8” for “compound 11”, “sheep erythrocytes” for “sheep erytrocytes”, “Mice of” for “Mice in”, “response were analyzed” for “response was analysed”
0.15 ml of compound 3 was administered intravenously to 6 female mice of the C57B1/6 line (weight 18-22 g) in doses of 45.5, 91 and 136.5 μg of compound 3 per capita for each testing group according to the dose. Simultaneously, a suspension of 5·10^7 sheep erytrocytes was injected intraperitoneally (0.2 ml per capita). Mice of the control group were injected intravenously with equal volume of saline.

SMILES	Amount of hemagglutinins ([1]; 45.5 μg/mouse i.v.) [Log2 T]	Amount of hemagglutinins ([1]; 91 μg/mouse i.v.) [Log2 T]	Amount of hemagglutinins ([1]; 136.5 μg/mouse i.v.) [Log2 T]	Amount of antibody-forming cells per 10^6 spleen cells ([2]; 45.5 μg/mouse)	Amount of antibody-forming cells per spleen ([2]; 45.5 μg/mouse)	Effect on relative amount of AFC (per 10^6 spleen cells) ([2]; 45.5 μg/mouse)	Effect on total AFC amount (per spleen) ([2]; 45.5 μg/mouse)	Spleen index ([2]; 45.5 μg/mouse)	Amount of antibody-forming cells per 10^6 spleen cells ([2]; 91 μg/mouse)	Amount of antibody-forming cells per spleen ([2]; 91 μg/mouse)	Effect on relative amount of AFC (per 10^6 spleen cells) ([2]; 91 μg/mouse)	Effect on total AFC amount (per spleen) ([2]; 91 μg/mouse)	Effect on hemagglutinin titers ([2]; 91 μg/mouse)	Spleen index ([2]; 91 μg/mouse)	immunostimulating action ([2]; 136.5 μg/mouse)	Amount of antibody-forming cells per 10^6 spleen cells ([2]; 136.5 μg/mouse)	Amount of antibody-forming cells per spleen ([2]; 136.5 μg/mouse)	Effect on hemagglutinin titers ([2]; 136.5 μg/mouse)	Spleen index ([2]; 136.5 μg/mouse)	Immunogenic activity [2]	further results
CC/C=C\C/C=C\C/C=C\C/C=C\C/C=C\C/C=C\CCC(=O)N[C@H](C(=O)O)[C@@H](C)OP(=O)(O)O [Compound 11, N-docosahexaenoyl-o-phospho-L-threonine]	8.3 ± 0.3	8.0 ± 0.5	9.3 ± 0.2	–	–	–	–	–	–	–	–	–	–	–	–	–	–	–	–	–	–
CC/C=C\C/C=C\C/C=C\C/C=C\C/C=C\CCCC(=O)NCCOP(=O)(O)O [Compound 13, N-eicosapentaenoyl-o-phospho-2-aminoethanol]	9.7 ± 1.2	9.5 ± 1.2	10.3 ± 0.9	–	–	–	–	–	–	–	–	–	–	–	–	–	–	–	–	–	–
CC/C=C\C/C=C\C/C=C\CCCCCCCC(=O)N[C@H](C(=O)O)[C@@H](C)OP(=O)(O)O [Compound 19, N-(cis-9,12,15-octadecatrienoyl)-O-phospho-L-threonine]	–	–	–	454.7±57.9 cells per 10^6 spleen cells	48.8±6.4 × 10^3	+4.3 p > 0.05%	+5.4 p > 0.05%	6.2 ± 10^−3	473.2±44.5 cells per 10^6 spleen cells	51.2±6.1 × 10^3	+8.6 p > 0.05%	+10.6 p > 0.05%	+3.8 p > 0.05%	6.4 ± 10^−3	marked immunostimulating action	612.5±47.3 cells per 10^6 spleen cells	64.7±4.9 × 10^3	+6.3 p > 0.05%	6.5 ± 10^−3	no immunogenic activity	Effect on hemagglutinin titers ([2]; 45.5 μg/mouse): +1,3 p > 005%
CC/C=C\C/C=C\C/C=C\CCCCCCCC(=O)N[C@H](C(=O)O)[C@@H](C)OP(=O)(O)O [Compound 19, N-linolenoyl-o-phospho-L-threonine]	8.1 ± 0.3	8.3 ± 0.4	8.5 ± 0.3	–	–	–	–	–	–	–	–	–	–	–	–	–	–	–	–	–	–
CC/C=C\C/C=C\C/C=C\CCCCCCCC(=O)N[C@@H](Cc1ccc(OP(=O)(O)O)cc1)C(=O)O [Compound 20, N-(cis-9,12,15-octadecatrienoyl)-O-phospho-L-tyrosine]	–	–	–	512.8±46.2 cells per 10^6 spleen cells	46.4±4.8 × 10^3	−9.8 p > 0.05%	−7.4 p > 0.05%	6.3 ± 0.3 10^−3	634.5±51.7 cells per 10^6 spleen cells	55.7±5.6 × 10^3	+11.6 p > 0.05%	+11.2 p > 0.05%	+1.4 p > 0.05%	6.5 ± 0.2 10^−3	marked immunostimulating action	845.1±43.1 cells per 10^6 spleen cells	75.8±7.7 × 10^3	+2.7 p > 0.05%	6.4 ± 0.4 10^−3	no immunogenic activity	–
